Experimental data reported in patent US20100016247A1, “USING BUDDING YEAST TO SCREEN FOR INHIBITORS OF AURORA KINASES” (FLORIDA STATE UNIVERSITY RESEARCH FOUNDATION, priority 2008, published 2010).
Read-outs that look alike come from different tables or passages of the source.

Tests used:
H460 cells = conditions: cited from earlier work
A549 cells [1] = test: Hoechst 33342 staining, chromatin condensation and apoptotic body; assay type: cell-based, human; conditions: 5 μg/ml, 48 hours
Experimental: Hoechst 33342 is a fluorescence dye that can be embedded in DNA double helix and emit blue fluorescence when excited with UV light. Treated and untreated A549 cell samples with 5 μg/ml Jadomycin B for 48 hours are stained with 100 ng/ml Hoechst 33342 for 10 minutes in dark. Stained cells are visualized with a Nikon ECLIPSS TE2000-U fluorescence microscope (Japan) at 100× and 400× magnification. Apoptotic cells show brightly stained nuclei because of the chromosome condensation and the appeared apoptotic bodies.

HepG2 cells = conditions: cited from earlier work
IM-9 cells = conditions: cited from earlier work
[2] = tested on: ipl1-321 mutant yeast cells; test: Growth of ipl1-321 mutant yeast cultures by OD600; assay type: cell-based, Saccharomyces cerevisiae; conditions: 25° C.; for growth inhibition of ipl1-321 cells: 10 μg/ml, 24 hr, vs untreated control
Experimental: (§1) Wild-type and ipl1-321 mutant yeast strains are used for this purpose. […] After incubation at about 25° C. for about 24 hrs, the growth of the yeast cultures in the presence of tested compounds is determined by measuring OD600.

[3] = biological target: T1, purified recombinant human Aurora-B kinase (Homo sapiens, UniProt Q96GD4); test: In vitro Aurora-B kinase activity assay (ELISA kit); assay type: biochemical; conditions: for inhibitory effect on Aurora-B: same condition as FIG. 3A, data not shown
T1 construct: purchased Cell Signaling Technology
T1 sequence (Q96GD4 whole entry): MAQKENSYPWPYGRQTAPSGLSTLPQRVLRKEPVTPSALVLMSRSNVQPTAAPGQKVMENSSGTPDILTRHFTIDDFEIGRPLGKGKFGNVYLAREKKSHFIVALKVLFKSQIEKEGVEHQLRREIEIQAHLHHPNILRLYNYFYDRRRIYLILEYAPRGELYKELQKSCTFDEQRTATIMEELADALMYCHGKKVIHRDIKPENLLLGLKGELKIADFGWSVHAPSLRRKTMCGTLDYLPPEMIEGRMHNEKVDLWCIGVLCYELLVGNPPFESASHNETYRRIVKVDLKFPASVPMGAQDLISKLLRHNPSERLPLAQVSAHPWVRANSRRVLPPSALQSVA
Experimental: To determine the inhibition of Aurora-B kinase activity by Jadomycin B, an Aurora-B kinase activity assay kit (Cell Signaling Technology) is used according to the manufacturer's instruction. Briefly, 100 ng of purified recombinant human Aurora-B kinase is added to a 100 μl reaction mixture containing 1× kinase buffer and 25 μM cold ATP in the presence of different concentrations of Jadomycin B (ranging from 10^−4 M to 10^−10 M). After incubation at room temperature for 15 min, biotinylated peptide substrate (Cell Signaling Technology) is added to each reaction mixture at a final concentration of 1.5 μM, and the mixtures are further incubated for 30 min. A parallel control experiment is performed under the same conditions without Jadomycin B. The reaction is stopped by addition of 50 μM EDTA (pH 8). The 25 μl reaction mixture is then transferred to a streptavidin-coated 96-well plate (PerkinElmer, Inc) and incubated at room temperature for 60 min. After washing three times with PBS/T, the […] (Ser10) antibody (Cell Signaling Technology) is added to the plate for further incubation at 37° C. for 120 min. After washing, FITC-labeled secondary antibody (Santa Cruz) is added. After incubation at room temperature for 30 min, the plate is finally washed five times, and the fluorescence signal is determined with BMG Polarstar Galaxy (Germany) at 535 nm. The inhibition ratio by Jadomycin B at each concentration is calculated according to the following equation: % Inhibition=100×(1−countstreated/countscontrol). The inhibition curve is then fitted by Originpro7.5 program and the IC50 value of Jadomycin B is determined.
To determine the mode of inhibition of Aurora-B by Jadomycin B, the kinase activity is also examined in the presence of different concentrations of ATP (25, 50, 75, 100, and 200 μM). The inhibition ratio of Aurora-B kinase activity by Jadomycin B at various concentrations is calculated as described above and the inhibition curve is fitted. The IC50 value of Jadomycin B at each ATP concentration is then determined and a linear fit is made with all five IC50 values. The Ki is determined from the intercept of the plot of [ATP] versus IC50 values (IC50=Ki/Km[ATP]+Ki).

[4] = tested on: phosphorylated histone H3 (Ser10) in A549 cells; test: Western blotting of phosphorylated histone H3 (Ser10); assay type: cell-based, human; conditions: 24 hr
Experimental: (§2) Cells are washed with cold PBS and whole-cell extracts are prepared with RIPA lysis buffer containing 60 μg/ml of PMSF. Equal amounts of protein (30 μg) are resolved with 15% SDS-PAGE. After transfer, the membranes are incubated overnight with primary antibodies (1:1000) against phosphorylated histone H3 (Ser10) (Cell Signaling Technology) and β-tubulin (Santa Cruz Biotechnology) at 4° C. The membranes are then incubated with HRP-conjugated goat anti-rabbit secondary antibody (Santa Cruz) at 1:200 followed by Chemiluminescence staining (Millipore).

IM9/Bcl-2 cells = conditions: cited from earlier work
A549 cells [5] = test: Cell growth assay (MTT, cell counting); assay type: cell-based, human; conditions: for growth inhibition by MTT assay: A549, 48 hours
Experimental: (§3) A549, Hela and MCF-7 cell lines are cultured in 96-well tissue culture plates at a cell density of 5,000 cells per well in RPMI-I640 or MEM containing 10% fetus bovine serum and 2 mM L-glutamine. After attachment overnight, the medium is replaced and cells are incubated with increasing concentrations of Jadomycin B or its two derivatives, Jadomycin S and T (ranging from 10^−4 M to 10^−8 M). After treatment for 48 hours, 3-(4,5-dimethylthiazol-2-yl)-2,5-diphenyltetrazolium bromide (MTT) assays are carried out in triplication. The concentration-viability curves are fitted and IC50 values are determined. Cells are also plated at a cell density of 10,000 cells per well in six-well tissue culture plates. After attachment overnight, cells are treated with 0, 5, or 10 μg/ml Jadomycin B for 96 hours. Cells are detached every 24 hr by trypsinization to count the cell number. All experiments are repeated three times.

MCF-7 cells = test: Cell growth assay (MTT, cell counting); assay type: cell-based, human; conditions: for growth inhibition by MTT assay: MCF-7, 48 hours
Experimental: as §3

Hela cells = test: Cell growth assay (MTT, cell counting); assay type: cell-based, human; conditions: for growth inhibition by MTT assay: Hela, 48 hours
Experimental: as §3

[6] = tested on: phosphorylated histone H3 (Ser10) in HepG2 cells; test: Western blotting of phosphorylated histone H3 (Ser10); assay type: cell-based, human; conditions: HepG2, 10 μg/ml, 24 hours
Experimental: as §2, with “A549 cells in the exponential growth phase are treated with 0, 1.25, 2.5, 5, 7.5, or 10 μg/ml Jadomycin B for 24 hours, while Hela and HepG2 cells are treated with 0 or 10 μg/ml of Jadomycin B. Cells” for “Cells”

[7] = tested on: phosphorylated histone H3 (Ser10) in Hela cells; test: as above; assay type: cell-based, human; conditions: 10 μg/ml, 24 hours
Experimental: as §2, with “A549 cells in the exponential growth phase are treated with 0, 1.25, 2.5, 5, 7.5, or 10 μg/ml Jadomycin B for 24 hours, while Hela and HepG2 cells are treated with 0 or 10 μg/ml of Jadomycin B. Cells” for “Cells”

wild-type yeast cells = test: Growth of wild-type yeast cultures by OD600; assay type: cell-based, Saccharomyces cerevisiae; conditions: 25° C.
Experimental: as §1

A549 cells [8] = test: FACS analysis of apoptosis and cell cycle distribution; assay type: cell-based, human; conditions: 5 μg/ml
Experimental: A549 cells in exponential growth phase are treated with 0 or 5 μg/ml Jadomycin B for up to 48 hours. Cells collected at the indicated times are fixed and stained with Propidium Iodide (PI). FACS analysis is performed to determine the percentage of apoptotic cells and cell cycle distribution by using the EPICS XL flow cytometer and System II software.

Which inhibition of proliferation (H460 cells) does the source give for `CC[C@H](C)[C@H]1C(=O)O[C@H]2c3cc(C)cc(O)c3C3=C(C(=O)c4c(O[C@H]5C[C@@H](O)[C@@H](O)[C@H](C)O5)cccc4C3=O)N12` [Jadomycin B] here?
The inhibition of proliferation was “inhibits the proliferation”.

And the “apoptosis by Hoechst 33342 staining” value (A549 cells [1])?
The value was “more and more cells underwent apoptosis”.

What about the inhibition of proliferation (HepG2 cells) of the same compound?
Its inhibition of proliferation is “inhibits the proliferation”.

And the inhibition of proliferation (IM-9 cells)?
The inhibition of proliferation was “inhibits the proliferation”.

What about the “growth inhibition of ipl1-321 mutant cells” value ([2]; 5 μg/ml, 24 hours) of the same compound?
The value was 50%.

What about the “growth inhibition of ipl1-321 cells” value [2] of the same compound?
The value was “almost completely”.

And the IC50 ([3]; 25 μM ATP, ATP titration FIG. 3B, read-out: IC50 for Aurora-B at given ATP concentration)?
The IC50 was 12.5 µM.

What about the IC50 ([3]; 25 μM ATP, fitted inhibition curve FIG. 3A, read-out: IC50 for inhibition of Aurora-B kinase activity) of the same compound?
The IC50 was 10.5 µM.

And the IC50 ([3]; 50 μM ATP, read-out: IC50 for Aurora-B at given ATP concentration)?
Its IC50 is 16.6 µM.

What about the IC50 ([3]; 75 μM ATP, read-out: IC50 for Aurora-B at given ATP concentration) of the same compound?
Its IC50 is 24.5 µM.

And the IC50 ([3]; 100 μM ATP, read-out: IC50 for Aurora-B at given ATP concentration)?
The IC50 was 32.2 µM.

What about the IC50 ([3]; 200 μM ATP, read-out: IC50 for Aurora-B at given ATP concentration) of the same compound?
Its IC50 is 53.1 µM.

And the Ki ([3]; from linear fit of IC50 versus [ATP])?
Its Ki is 6.8 µM.

And the “mode of inhibition of Aurora-B kinase” value ([3]; with respect to ATP, 5 ATP concentrations)?
Its value is “competitive inhibition”.

And the “reduction of H3 phosphorylation (grayscale scanning)” value ([4]; A549, 2 μg/ml)?
Its value is 28%.

And the “phosphorylated histone H3 band on western blot” value ([4]; A549, 10 μg/ml)?
The value was “do not express any detectable phosphorylated histone H3”.

What about the “reduction of H3 phosphorylation (grayscale scanning)” value ([4]; A549, 10 μg/ml) of the same compound?
Its value is 73%.

What about the inhibition of proliferation (IM9/Bcl-2 cells) of the same compound?
The inhibition of proliferation was “inhibits the proliferation”.

And the “growth curve, sensitivity of cell line” value (A549 cells [5]; A549, 0, 5 or 10 μg/ml, 96 hours, cell counting)?
The value was “sensitive”.

And the “growth inhibition by MTT assay” value (A549 cells [5])?
The value was “most sensitive”.

And the “growth curve, sensitivity of cell line” value (MCF-7 cells; MCF-7, 0, 5 or 10 μg/ml, 96 hours, cell counting)?
The value was “sensitive”.

What about the “growth curve, sensitivity of cell line” value (Hela cells; Hela, 0, 5 or 10 μg/ml, 96 hours, cell counting) of the same compound?
Its value is “sensitive”.

And the “levels of phosphorylated histone H3” value [6]?
Its value is “significant decrease”.

What about the “levels of phosphorylated histone H3” value [7] of the same compound?
Its value is “significant decrease”.

What about the “growth inhibition of wild-type cells” value (wild-type yeast cells; 5 μg/ml, 24 hours) of the same compound?
The value was “little growth inhibition”.

And the “growth inhibition of wild-type cells” value (wild-type yeast cells; 10 μg/ml, 24 hr)?
The value was “uninhibited”.

What about the “growth inhibition of wild-type cells” value (wild-type yeast cells; 100 μg/ml, 24 hours) of the same compound?
The value was 60%.

What about the “effect on cell cycle” value (A549 cells [8]) of the same compound?
Its value is “does not block cell cycle”.

And the “increase of cells in S phase” value (A549 cells [8])?
Its value is 2%.

What about the “percentage of apoptotic cells, treated versus untreated” value (A549 cells [8]; 3 hr) of the same compound?
The value was “almost no difference”.

What about the “portion of apoptotic cells (sub-G1)” value (A549 cells [8]; 12 hr) of the same compound?
Its value is 17.8%.

What about the “portion of apoptotic cells (sub-G1)” value (A549 cells [8]; 24 hr) of the same compound?
Its value is 44%.

What about the “portion of apoptotic cells (sub-G1)” value (A549 cells [8]; 48 hr) of the same compound?
The value was 71.7%.

With `Cc1cc(O)c2c(c1)[C@@H]1OC(=O)[C@H](CO)N1C1=C2C(=O)c2cccc(O[C@H]3C[C@@H](O)[C@@H](O)[C@H](C)O3)c2C1=O` [Jadomycin S, reference compound] as the compound, how does the “growth inhibition of ipl1-321 cells” value [2] read?
Its value is “neither shows inhibitory effect”.

And the “inhibitory effect on Aurora-B” value [3]?
The value was “no inhibitory activity is detected”.

And the “growth inhibition by MTT assay” value (A549 cells [5])?
The value was “inhibited growth”.

And the “growth inhibition by MTT assay” value (MCF-7 cells)?
The value was “inhibited growth”.

And the “growth inhibition by MTT assay” value (Hela cells)?
Its value is “inhibited growth”.

Which “growth inhibition of ipl1-321 cells” value [2] does the source give for `Cc1cc(O)c2c(c1)[C@@H]1OC(=O)[C@H]([C@H](C)O)N1C1=C2C(=O)c2cccc(O[C@H]3C[C@@H](O)[C@@H](O)[C@H](C)O3)c2C1=O` [Jadomycin T, reference compound] here?
Its value is “neither shows inhibitory effect”.

What about the “inhibitory effect on Aurora-B” value [3] of the same compound?
The value was “no inhibitory activity is detected”.

And the “growth inhibition by MTT assay” value (A549 cells [5])?
The value was “inhibited growth”.

What about the “growth inhibition by MTT assay” value (MCF-7 cells) of the same compound?
Its value is “inhibited growth”.

And the “growth inhibition by MTT assay” value (Hela cells)?
Its value is “inhibited growth”.
